Test results taken from patent US6737383B1, “Herbicidal oxadiazolidines” (priority 1999, dated 2004).

Assays:
cocklebur = test: Test B pre/postemergence cocklebur; assay type: in vivo, Xanthium strumarium; conditions: for Cocklebur plant response rating: scale of 0 to 10 where 0 is no effect and 10 is complete control
Outline: (§1)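 Herbicidal effect was estimated by eye on a ten-point control scale after plants spent twelve to sixteen days in a greenhouse following soil or foliar treatment. Foliar sprays targeted plants at one to four leaves; all doses were formulated in a non-phytotoxic solvent with surfactant.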

soybean = test: Test B pre/postemergence soybean; assay type: in vivo, Glycine max; conditions: for Soybean plant response rating: scale of 0 to 10 where 0 is no effect and 10 is complete control
Outline: as §1

velvetleaf = test: Test B pre/postemergence velvetleaf; assay type: in vivo, Abutilon theophrasti; conditions: for Velvetleaf plant response rating: scale of 0 to 10 where 0 is no effect and 10 is complete control
Outline: as §1

duck salad = test: Test B flood test duck salad; assay type: in vivo, Heteranthera limosa
Outline: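 Read-out is a visual response score from 0 (no effect) to 10 (complete control), assigned by comparison with untreated controls. Treatment was applied at the 2-leaf stage, and plants stayed in the greenhouse for twelve to sixteen days before scoring.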

winter wheat [1] = test: Test E winter wheat; assay type: in vivo, Triticum aestivum; conditions: Postemergence, 0 to 100 scale, 0 is no effect, 100 is complete control
Outline: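 Compounds formulated in non-phytotoxic solvent mixture with surfactant; for postemergence, sprayed on plants at 1- to 4-leaf stage grown in 60:40 sandy loam/greenhouse potting mix. Kept in greenhouse ~21 to 28 days, then visually rated against untreated controls.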

blackgrass = test: Test E blackgrass; assay type: in vivo, Alopecurus myosuroides; conditions: Preemergence
green foxtail = test: Test E green foxtail; assay type: in vivo, Setaria viridis; conditions: Preemergence
Italian ryegrass = test: Test E Italian ryegrass; assay type: in vivo, Lolium multiflorum; conditions: Preemergence
winter wheat [2] = test: Test E winter wheat; assay type: in vivo, Triticum aestivum; conditions: Preemergence
wild oat = test: Test E wild oat; assay type: in vivo, Avena fatua; conditions: Preemergence
winter barley = test: Test E winter barley; assay type: in vivo, Hordeum vulgare; conditions: Preemergence
[3] = Postemergence, Rate 125 g/ha, scale 0 to 10, 0 is no effect, 10 is complete control
[4] = Postemergence, Rate 250 g/ha, scale 0 to 10, 0 is no effect, 10 is complete control
[5] = Preemergence, Rate 62 g/ha, scale 0 to 10 (0 no effect, 10 complete control)
[6] = Rate 500 g/ha, 0 to 100 scale (0 no effect, 100 complete control)

CC(C)N(C(=O)n1oc(=O)n(CCC#N)c1=O)c1ccc(F)cc1 [Compound 388]
Plant response rating, Cocklebur (cocklebur; [3]): 0
Plant response rating, Cocklebur (cocklebur; [4]): 0
Cocklebur plant response rating (cocklebur; Postemergence, Rate 500 g/ha): 0
Plant response rating, Cocklebur (cocklebur; [5]): 0
Cocklebur plant response rating (0 to 10 scale) (cocklebur; Preemergence, Rate 125 g/ha): 0
Cocklebur plant response rating (cocklebur; Preemergence, Rate 250 g/ha): 0
Cocklebur plant response rating (cocklebur; Preemergence, Rate 500 g/ha): 0
Cocklebur plant response rating (cocklebur; Rate 62 g/ha, Postemergence): 0
Plant response rating, Soybean (soybean; [3]): 1
Plant response rating, Soybean (soybean; [4]): 1
Soybean plant response rating (soybean; Postemergence, Rate 500 g/ha): 1
Plant response rating, Soybean (soybean; [5]): 0
Soybean plant response rating (0 to 10 scale) (soybean; Preemergence, Rate 125 g/ha): 0
Soybean plant response rating (soybean; Preemergence, Rate 250 g/ha): 0
Soybean plant response rating (soybean; Preemergence, Rate 500 g/ha): 4
Soybean plant response rating (soybean; Rate 62 g/ha, Postemergence): 1
Plant response rating, Velvetleaf (velvetleaf; [3]): 2
Plant response rating, Velvetleaf (velvetleaf; [4]): 2
Velvetleaf plant response rating (velvetleaf; Postemergence, Rate 500 g/ha): 6
Plant response rating, Velvetleaf (velvetleaf; [5]): 0
Velvetleaf plant response rating (0 to 10 scale) (velvetleaf; Preemergence, Rate 125 g/ha): 2
Velvetleaf plant response rating (velvetleaf; Preemergence, Rate 250 g/ha): 2
Velvetleaf plant response rating (velvetleaf; Preemergence, Rate 500 g/ha): 6
Velvetleaf plant response rating (velvetleaf; Rate 62 g/ha, Postemergence): 0
Plant response rating, Ducksalad (0 to 10 scale, 0 is no effect, 10 is complete control) (duck salad; Rate 62 g/ha, flood test species, Pre-emergence, visual evaluation after twelve to sixteen days): 0
Ducksalad plant response rating (0 to 10 scale, 0 is no effect, 10 is complete control) (duck salad; Rate 125 g/ha, under heading Pre-emergence, flood test species, visual evaluation after twelve to sixteen days): 0
Ducksalad plant response rating (duck salad; Rate 250 g/ha, Pre-emergence, flood-test species, scale 0 to 10, 0 is no effect, 10 is complete control): 0
Ducksalad plant response rating (duck salad; Rate 500 g/ha, Pre-emergence, flood test species, scale 0 to 10 (0 no effect, 10 complete control)): 0
Plant response rating, Wheat (winter) (winter wheat [1]; Rate 125 g/ha): 30
Plant response rating, Wheat (winter) (winter wheat [1]; Rate 250 g/ha): 30
Plant response rating, Wheat (winter) (winter wheat [1]; Rate 500 g/ha): 65
Plant response rating, Blackgrass (blackgrass; Rate 125 g/ha, 0 to 100 scale): 0
Plant response rating, Blackgrass (blackgrass; Rate 250 g/ha, 0 to 100 scale): 0
Plant response rating, Blackgrass (blackgrass; [6]): 40
Plant response rating, Green foxtail (green foxtail; Rate 125 g/ha, 0 to 100 scale): 30
Plant response rating, Green foxtail (green foxtail; Rate 250 g/ha, 0 to 100 scale): 40
Plant response rating, Green foxtail (green foxtail; [6]): 85
Plant response rating, I. Ryegrass (Italian ryegrass; Rate 125 g/ha, 0 to 100 scale): 30
Plant response rating, I. Ryegrass (Italian ryegrass; Rate 250 g/ha, 0 to 100 scale): 40
Plant response rating, I. Ryegrass (Italian ryegrass; [6]): 60
Plant response rating, Wheat (winter) (winter wheat [2]; Rate 125 g/ha, 0 to 100 scale): 50
Plant response rating, Wheat (winter) (winter wheat [2]; Rate 250 g/ha, 0 to 100 scale): 50
Plant response rating, Wheat (winter) (winter wheat [2]; [6]): 60
Plant response rating, Wild oat (wild oat; Rate 125 g/ha, 0 to 100 scale): 20
Plant response rating, Wild oat (wild oat; Rate 250 g/ha, 0 to 100 scale): 20
Plant response rating, Wild oat (wild oat; [6]): 30
Plant response rating, Barley (winter) (winter barley; Rate 125 g/ha, 0 to 100 scale (0 no effect, 100 complete control)): 10
Plant response rating, Barley (winter) (winter barley; Rate 250 g/ha, 0 to 100 scale, 0 no effect, 100 complete control): 20
Plant response rating, Barley (winter) (winter barley; [6]): 70
